Reference: PMC5942373 (Beilstein Journal of Organic Chemistry, 2018)
“Also recorded” adds a separate entry of the source. Read-outs that look alike come from different tables or passages of the source. Blank lines part the entries; values can stand above or below the compound they belong to. Positions of bridges follow the written chain, without caps; N, C: chain ends. Residues, ends and D or L forms follow the SMILES beside them. Chains are numbered I, II in the order given. *: point of attachment. Daunorubicin(13-NOCH2CO) = COc1cccc2c1C(=O)c1c(O)c3c(c(O)c1C2=O)C[C@@](O)(C(C)=NOCC(=O)*)C[C@@H]3O[C@H]1C[C@H](N)[C@H](O)[C@H](C)O1

What was measured:
[1] = tested on: CD13+ HT-1080 human fibrosarcoma cells; test: In vitro cytostatic/cytotoxic effect, PrestoBlue viability; type: cell-based
Source text: (§1) Similarly to our previous study the antitumor effects of conjugates were examined in vitro on CD13+ HT-1080 human fibrosarcoma and on CD13− HT-29 human colon adenocarcinoma cells. Both cell types are integrin receptor positive. The effect of the new drug conjugates was compared with the toxicity of free Dau and our lead compound Dau=Aoa-GFLGK(c[KNGRE]-GG)-NH2 (K). The bioconjugates enter cancer cells most likely by receptor-mediated endocytosis (at least at lower micromolar concentration) followed by the release of the active metabolite Dau=Aoa-Gly-OH by lysosomal degradation. In contrast, free Dau enters the cells in an unspecific manner which might explain the lower antitumor effect of conjugates in comparison with the free drug. In this experiment we measured the cytostatic effect (6 h treatment and further 66 h incubation after washing out the compounds) and the cytotoxic effect (72 h treatment). The results are summarized in (Table 3). […] It seems that the replacement of Lys by the hydrophilic amino acid Ser is not favorite. However, the incorporation of hydrophobic amino acids was well accepted. The conjugate with bulky side chain in this position (Leu) had higher IC50 values that might be explained by sterical hindrance. […] The Nle containing conjugate presented similar activity on HT-1080 and higher activity on HT-29 cells compared to the control conjugate. It is worth mentioning that Nle has a linear hydrocarbon side chain with the same length as Lys, the amino functional group missing. To further characterize the biological activity of the conjugates, their lysosomal degradation and cellular uptake were studied.
(§2) HT-1080 was maintained in DMEM while HT-29 cells in RPMI (Sigma-Aldrich), respectively, supplemented with 10% FBS, 5 mmol/L glutamine, and 50 units/mL penicillin and streptomycin (Life Technologies). As described in [17] cells were seeded in 5000 cells/well density in 100 μL medium followed by an overnight incubation. The next day 100 μL of serially diluted drugs were added to the cells. For the measurements of cytostatic effect, drug containing medium was gently removed from the plates after 6 h incubation, fresh medium was added to each wells, and the plates were further incubated for additional 66 h (72 h in total). In the case of cytotoxicity measurements, the drug containing medium was on the cells for the full period of the 72 h assay. At 72 h, supernatant was removed from the cells, and viability was assessed by the PrestoBlue® reagent (Life Technologies), which was diluted in PBS to reach the concentration given in the manufacturer’s instruction.

[2] = tested on: CD13- HT-29 human colon adenocarcinoma cells; test: as above; type: cell-based
Source text: as §1, §2

HT-29 cells = test: Cellular uptake by flow cytometry; type: cell-based, human; details: 10 μM, 6 h, 37 °C; for Cellular uptake in HT-29 compared with HT-1080 cells: flow cytometry, comparison of the two cell lines; for Cellular uptake by HT-29 cells: FBS containing medium, flow cytometry (Dau fluorescence)
Source text: (§3) Daunomycin is fluorescent therefore the cellular uptake of Dau containing conjugates can be followed by flow cytometry (Figure 2). The new conjugates were taken up by HT-29 cells in a higher amount than by HT-1080 cells. […] The low cytostatic/cytotoxic effects of conjugate 5 can be explained by the results of cellular uptake study.
(§4) Figure 2 (A) HT1080 and (B) HT-29 cells. Uptake of conjugate 1 (light green); 2 (red); 3 (light blue); 4 (pink); 5 (green); K (yellow). Empty control with purple color.
(§5) Analogous to the description in [17], prior to the treatment, HT-1080 and HT-29 cells were incubated overnight in cell culture medium (see above) followed by seeding at a 250.000 cells/well density. Peptide–drug conjugates were dissolved in FBS containing cell culture medium and added to the cells at 10 μM final concentration. After 6 h incubation at 37 °C the supernatant was removed, cells were washed with PBS and trypsinised with 0.1% trypsin (Gibco® by Life Technologies) for 10 minutes. Trypsinization was terminated with FBS containing medium, then cells were washed and suspended in serum free medium. For live/dead detection we used Zombie Violet reagent (Biolegend, San Diego CA). Samples were detected and analyzed by using an Attitude® Acoustic Focusing Cytometer (ThermoFischer Scientific).

HT-1080 cells = test: Cellular uptake by flow cytometry; type: cell-based, human; details: 10 μM, 6 h, 37 °C, FBS containing medium; flow cytometry (Dau fluorescence)
Source text: as §3, §4, §5

[3] = Chemostability (Asn deamidation) of cyclic NGR peptide-daunomycin conjugates in complete cell culture medium; type: physicochemical; details: DMEM CM (10% FBS complete medium), 2% DMSO, 1 mg/mL, 37 °C, HPLC-MS, area under the curve
Protocol: The chemostability of cyclic NGR peptide–drug conjugates was studied under the treatment conditions used for the in vitro cytotoxicity experiments. Samples were taken at 0 min, 6 h and 72 h. The deamidation rate was evaluated by HPLC–MS. […] After 6 h, moderate rearrangement was observed which increased in time. However, 54–58% of the parent cyclic NGR conjugates were still intact after 72 h. […] Except deamidation no other decomposition could be observed during this study.
As described in [17] to check the chemical stability each of the drug conjugates were dissolved in DMSO (2% of the final volume), following the addition of 10% FBS (fetal bovine serum) containing complete cell culture medium (DMEM CM) up to the 1 mg/mL final concentration. Each conjugate was allowed to incubate at 37 °C. Samples were analyzed at experiment time of 0 h, 6 h and 72 h, respectively, and components were purified with Amicon Ultra Centrifugal Filters (cut off 10K Millipore). The membranes were washed with eluent A (HPLC), followed by 3 × 15 min centrifugation at 13000 rpm. The last step is the washing with eluent B (HPLC) 1 × 15 min, followed by lyophilization and concentration of the samples.

[4] = Rat liver lysosomal homogenate; details: 37 °C, up to 72 h
[5] = 10% FBS (fetal bovine serum) containing complete cell culture medium (DMEM CM); details: 37 °C, up to 72 h

Compound: COc1cccc2c1C(=O)c1c(O)c3c(c(O)c1C2=O)C[C@@](O)(C(C)=O)C[C@@H]3O[C@H]1C[C@H](N)[C@H](O)[C@H](C)O1 [Daunomycin]
IC50 ([1]; HT-1080, 72 h, read-out: HT-1080 (72 h) IC50): 500 ± 200 nM | IC50 ([1]; HT-1080, read-out: HT-1080 (6 h) IC50): 1400 ± 600 nM | IC50 ([2]; HT-29, 72 h, read-out: HT-29 (72 h) IC50): 100 ± 100 nM | IC50 ([2]; HT-29, read-out: HT-29 (6 h) IC50): 300 ± 200 nM

Compound: COc1cccc2c1C(=O)c1c(O)c3c(c(O)c1C2=O)C[C@@](O)(C(C)=NOCC(=O)NCC(=O)N[C@@H](Cc1ccccc1)C(=O)N[C@@H](CC(C)C)C(=O)NCC(=O)N[C@@H](CCCCNC(=O)CNC(=O)CNC(=O)[C@@H]1CCC(=O)N[C@@H](CC(C)C)C(=O)N[C@@H](CC(N)=O)C(=O)NCC(=O)N[C@@H](CCCNC(=N)N)C(=O)N1)C(N)=O)C[C@@H]3O[C@H]1C[C@H](N)[C@H](O)[C@H](C)O1 [compound 2, Dau=Aoa-GFLGK(c[CONH-LNGRE]-GG)-NH2]
Cellular uptake in HT-29 compared with HT-1080 cells (HT-29 cells): significantly higher accumulation in HT-29 than in HT-1080 cells

Compound: COc1cccc2c1C(=O)c1c(O)c3c(c(O)c1C2=O)C[C@@](O)(C(C)=NOCC(=O)NCC(=O)N[C@@H](Cc1ccccc1)C(=O)N[C@@H](CC(C)C)C(=O)NCC(=O)N[C@@H](CCCCNC(=O)CNC(=O)CNC(=O)[C@@H]1CCC(=O)N2CCC[C@H]2C(=O)N[C@@H](CC(N)=O)C(=O)NCC(=O)N[C@@H](CCCNC(=N)N)C(=O)N1)C(N)=O)C[C@@H]3O[C@H]1C[C@H](N)[C@H](O)[C@H](C)O1 [compound 4, Dau=Aoa-GFLGK(c[CONH-PNGRE]-GG)-NH2] (I: PNGREGG / II: {Daunorubicin(13-NOCH2CO)}-GFLGK-NH2; amide I:C-II:5; lactam I:N-I:5)
Cellular uptake by HT-1080 cells (HT-1080 cells): highest uptake | Cellular uptake by HT-29 cells (HT-29 cells): highest uptake | Cellular uptake in HT-29 compared with HT-1080 cells (HT-29 cells): significantly higher accumulation in HT-29 than in HT-1080 cells | Ratio of Asn-/Asp-/isoAsp-derivatives: DGR ([3]; 6 h): 14% | Ratio of Asn-/Asp-/isoAsp-derivatives: isoDGR ([3]; 6 h): 13% | Ratio of Asn-/Asp-/isoAsp-derivatives: NGR ([3]; 6 h, % printed in b14 only): 73% | Ratio of Asn-/Asp-/isoAsp-derivatives: DGR ([3]; 72 h): 46% | Ratio of Asn-/Asp-/isoAsp-derivatives: NGR ([3]; 72 h): 19% | Ratio of Asn-/Asp-/isoAsp-derivatives: isoDGR ([3]; 72 h): 35%

Compound: COc1cccc2c1C(=O)c1c(O)c3c(c(O)c1C2=O)C[C@@](O)(C(C)=NOCC(=O)NCC(=O)N[C@@H](Cc1ccccc1)C(=O)N[C@@H](CC(C)C)C(=O)NCC(=O)N[C@@H](CCCCNC(=O)CNC(=O)CNC(=O)[C@@H]1CCC(=O)N[C@@H](CO)C(=O)N[C@@H](CC(N)=O)C(=O)NCC(=O)N[C@@H](CCCNC(=N)N)C(=O)N1)C(N)=O)C[C@@H]3O[C@H]1C[C@H](N)[C@H](O)[C@H](C)O1 [compound 5, Dau=Aoa-GFLGK(c[CONH-SNGRE]-GG)-NH2]
Cellular uptake by HT-1080 cells (HT-1080 cells): did not enter | Cellular uptake by HT-29 cells (HT-29 cells): slightly higher cellular uptake

Compound: Dau=Aoa-GFLGK(c[CONH-LNGRE]-GG)-NH2
cleaved bond [4]: Gly-Phe, major, 6 h | fragment found [5]: isoDGR, 6 h; also recorded: DGR, 72 h

Compound: Dau=Aoa-GFLGK(c[CONH-PNGRE]-GG)-NH2
cleaved bond [4]: Gly-Phe, major, 6 h | fragment found [5]: isoDGR, 6 h; also recorded: DGR, 6 h

Results, then the compound that gave them:

cleaved bond [4]: Gly-Phe, major, 6 h | fragment found [5]: isoDGR, 6 h; also recorded: DGR, 72 h
Compound: Dau=Aoa-GFLGK(c[CONH-ANGRE]-GG)-NH2

not cleaved [5]: 100% NGR form at 72 h
Compound: Dau=Aoa-GFLGK(c[CONH-KNGRE]-GG)-NH2

cleaved bond [4]: Gly-Phe, major, 6 h | fragment found [5]: isoDGR, 6 h; also recorded: DGR, 6 h
Compound: Dau=Aoa-GFLGK(c[CONH-NleNGRE]-GG)-NH2

cleaved bond [4]: Gly-Phe, major, 6 h | fragment found [5]: DGR, 72 h; also recorded: isoDGR, 6 h
Compound: Dau=Aoa-GFLGK(c[CONH-SNGRE]-GG)-NH2
